In EP4782453A1 (Beyang Therapeutics Co., Ltd., priority 2023, dated 2025):
pIC50: −log10 of the molar value. Like-named read-outs stand apart in the source and are kept apart here.

Molecular target: T1, Menin-MLL (Homo sapiens, UniProt O00255)
T1 construct: His-Menin (M1-L615 end); purchased BIORTUS BP9210
T1 sequence (O00255 1-615 isoform O00255-1): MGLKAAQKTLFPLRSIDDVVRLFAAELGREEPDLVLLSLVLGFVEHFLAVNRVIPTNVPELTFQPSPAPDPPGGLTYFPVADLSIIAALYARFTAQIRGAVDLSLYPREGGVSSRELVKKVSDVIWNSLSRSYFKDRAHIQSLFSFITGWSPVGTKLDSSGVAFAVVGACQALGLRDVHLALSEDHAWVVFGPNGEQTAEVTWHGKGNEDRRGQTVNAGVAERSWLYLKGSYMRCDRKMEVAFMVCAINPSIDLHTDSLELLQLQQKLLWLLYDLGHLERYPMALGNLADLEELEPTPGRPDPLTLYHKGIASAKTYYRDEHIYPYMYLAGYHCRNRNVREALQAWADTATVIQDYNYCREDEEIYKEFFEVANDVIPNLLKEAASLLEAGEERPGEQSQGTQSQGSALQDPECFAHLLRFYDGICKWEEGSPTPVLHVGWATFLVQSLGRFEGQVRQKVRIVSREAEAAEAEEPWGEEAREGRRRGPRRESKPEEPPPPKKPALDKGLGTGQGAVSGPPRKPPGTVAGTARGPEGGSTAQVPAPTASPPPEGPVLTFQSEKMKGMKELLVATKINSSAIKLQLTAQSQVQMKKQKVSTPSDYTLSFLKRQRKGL
Assay: Inhibitory activity against Menin-MLL binding (fluorescence polarization)
Conditions: 150 nM His-Menin, 15 nM FITC-MLL, 25°C for 60 min
Description: • His-Menin (M1-L615 end), purchased from BIORTUS, Catalog Number: BP9210; and • FITC-MLL4-43, purchased from GenScript, Catalog Number: C491HFF190-3/PE1324.
In a 10 µL reaction solution (20 mM HEPES, pH 7.5, 50 mM NaCl, 1 mM DTT, 0.01% BSA) containing any compound from the examples, 150 nM His-Menin was added to a 384-well plate (Corning, Model: 4514). Each concentration was set up in duplicate wells. After centrifugation at 1000 RPM for 1 min, the plate was incubated at 25°C for 15 min. Then, 15 nM […] (20 mM HEPES, pH 7.5, 50 mM NaCl, 1 mM DTT, 0.01% BSA) was added to a 384-well plate. After centrifugation at 1000 RPM for 1 min, the reaction proceeded at 25°C for 60 min. Changes in fluorescence polarization were measured using a plate reader (PerkinElmer, Envision 2104). Based on the measured signals, the binding inhibition rate of the compound at each concentration was calculated, and the IC50 (half-maximal inhibitory concentration) of the compound was determined using statistical analysis software GraphPad Prism (GraphPad Software, Inc.) by means of a nonlinear fitting formula: 4-Parameter Logistic Model or Sigmoidal Dose-Response Model: Y = Bottom + (Top−Bottom)/(1 + 10^((LogIC50−X) × Hill Slope)), [formula] in which X indicates the logarithm of compound concentration, Y indicates a fluorescence polarization mP value, and Top and Bottom indicate the maximum and minimum readouts of fluorescence polarization mP values. Table 1: Inhibitory Activity of Compounds Against Menin-MLL Binding

[1] = Menin-MLL IC50, fluorescence polarization
[2] = fluorescence polarization, read-out: Menin-MLL IC50

pIC50 [2] | Structure (SMILES) | pIC50 [1]
– | CCN(C(=O)c1cc(F)ccc1-c1cc(C2CCN(C[C@H]3CC[C@H](NS(=O)(=O)CC)CC3)C2)nc2c1cnn2C)C(C)C (mixture of isomers) [Example 11, N-ethyl-5-fluoro-2-[1-methyl-6-(1-{[(1r,4r)-4-ethanesulfonamidocyclohexyl]methyl}pyrrolidin-3-yl)-1H-pyrazolo[3,4-b]pyridin-4-yl]-N-(isopropyl)benzamide] | 6.81
7.73 | CCN(C(=O)c1cc(F)ccc1-c1cc(C2CCN(C[C@H]3CC[C@H](NC(=O)OC(C)(C)C)CC3)C2)cn2cncc12)C(C)C (mixture of isomers) [Example 21, N-[(1r,4r)-4-{[3-(8-{2-[ethyl(isopropyl)aminoformyl]-4-fluorophenyl}imidazo[1,5-a]pyridin-6-yl)pyrrolidin-1-yl]methyl}cyclohexyl]tert-butyl carbamate] | –
– | CCN(C(=O)c1cc(F)ccc1-c1cc(C2CCN(C[C@H]3CC[C@H](NS(=O)(=O)CC)CC3)C2)cn2cncc12)C(C)C (mixture of isomers) [Example 22, N-ethyl-5-fluoro-N-isopropyl-2-[6-(1-{[(1r,4r)-4-ethanesulfonamidocyclohexyl]methyl}pyrrolidin-3-yl)imidazo[1,5-a]pyridin-8-yl]benzamide] | 7.60
– | CCN(C(=O)c1cc(F)ccc1-c1cc(C2CCN(C[C@H]3CC[C@H](NS(=O)(=O)CC)CC3)C2)cc2cncn12)C(C)C (mixture of isomers) [Example 25, N-ethyl-5-fluoro-N-isopropyl-2-[7-(1-{[(1r,4r)-4-ethanesulfonamidocyclohexyl]methyl}pyrrolidin-3-yl)imidazo[1,5-a]pyridin-5-yl]benzamide] | 7.72
– | CCN(C(=O)c1cc(F)ccc1-c1cc(C2CCN(C[C@H]3CC[C@@H](NS(=O)(=O)CC)CC3)C2)cc2cncn12)C(C)C (mixture of isomers) [Example 26, N-ethyl-5-fluoro-N-isopropyl-2-[7-(1-{[(1s,4s)-4-ethanesulfonamidocyclohexyl]methyl}pyrrolidin-3-yl)imidazo[1,5-a]pyridin-5-yl]benzamide] | 7.35
7.98 | CCN(C(=O)c1cc(F)ccc1-c1cc(C2CCN(C[C@H]3CC[C@H](NC(=O)OC(C)(C)C)CC3)C2)cn2c(C)ncc12)C(C)C (mixture of isomers) [Example 29, N-[(1r,4r)-4-{[3-(8-{2-[ethyl(isopropyl)aminoformyl]-4-fluorophenyl}-3-methylimidazo[1,5-a]pyridin-6-yl)pyrrolidin-1-yl]methyl}cyclohexyl]tert-butyl carbamate] | –
– | CCN(C(=O)c1cc(F)ccc1-c1cc(C2CCN(C[C@H]3CC[C@H](NS(=O)(=O)CC)CC3)C2)cc2cnc(C)n12)C(C)C (mixture of isomers) [Example 35, N-ethyl-5-fluoro-2-[3-methyl-7-(1-{[(1r,4r)-4-ethanesulfonamidocyclohexyl]methyl}pyrrolidin-3-yl)imidazo[1,5-a]pyridin-5-yl]-N-(isopropyl)benzamide] | 7.40
6.57 | CC(C)N(CC(F)F)C(=O)c1cc(F)ccc1-c1cc(C2CCN(CCN3CCC(NC(=O)OC(C)(C)C)CC3)C2)cc2c1cnn2C (racemic) [Example 166, N-(1-{2-[3-(4-{2-[(2,2-difluoroethyl)(isopropyl)aminoformyl]-4-fluorophenyl}-1-methyl-1H-indazol-6-yl)pyrrolidin-1-yl]ethyl}piperidin-4-yl)tert-butyl carbamate] | –
6.86 | C=C1C[C@@H]2CC[C@H]1[C@@H](C(=O)N1CCC(c3cc(-c4ccc(F)cc4C(=O)N(CC)C(C)C)c4cncn4c3)CC1)N2 [Compound 39, N-ethyl-5-fluoro-2-(6-{1-[(1S,3S,4R)-5-methylene-2-azabicyclo[2.2.2]octan-3-carbonyl]piperidin-4-yl}imidazo[1,5-a]pyridin-8-yl)-N-(isopropyl)benzamide] | –
7.08 | CCN(C(=O)c1cc(F)ccc1-c1cc(N2CCN(C(=O)[C@H]3N[C@@H]4CC[C@H]3C4)CC2)cn2cncc12)C(C)C [Compound 40, 2-(6-{4-[(1R,3S,4S)-2-azabicyclo[2.2.1]heptan-3-carbonyl]piperazin-1-yl}imidazo[1,5-a]pyridin-8-yl)-N-ethyl-5-fluoro-N-(isopropyl)benzamide] | –
7.85 | CCN(C(=O)c1cc(F)ccc1-c1cc(C2CCN(CC3(O)CCC(NC(=O)OC(C)(C)C)CC3)C2)cn2c(C)ncc12)C(C)C (stereo not shown) [Compound 50, N-(4-{[3-(8-{2-[ethyl(isopropyl)aminoformyl]-4-fluorophenyl}-3-methylimidazo[1,5-a]pyridin-6-yl)pyrrolidin-1-yl]methyl}-4-hydroxylcyclohexyl)tert-butyl carbamate] | –
– | CCN(C(=O)c1cc(F)ccc1-c1cc(C2CCN(C[C@]3(F)CC[C@H](NS(=O)(=O)CC)CC3)C2)cn2c(C)ncc12)C(C)C (stereo partly shown) [Compound 51, N-ethyl-5-fluoro-2-[3-methyl-6-(1-{[(1r,4r)-4-ethanesulfonamido-1-fluorocyclohexyl]methyl}pyrrolidin-3-yl)imidazo[1,5-a]pyridin-8-yl]-N-(isopropyl)benzamide] | 7.19
– | CCN(C(=O)c1cc(F)ccc1-c1cc(C2CCN(C[C@]3(F)CC[C@@H](NS(=O)(=O)CC)CC3)C2)cn2c(C)ncc12)C(C)C (stereo partly shown) [Compound 52, N-ethyl-5-fluoro-2-[3-methyl-6-(1-{[(1s,4s)-4-ethanesulfonamido-1-fluorocyclohexyl]methyl}pyrrolidin-3-yl)imidazo[1,5-a]pyridin-8-yl]-N-(isopropyl)benzamide] | 7.55
6.98 | CCN(C(=O)c1cc(F)ccc1-c1cc(C2CCN(C[C@]3(O)CC[C@@H](NC(=O)OC(C)(C)C)CC3)C2)cc2c1cnn2C)C(C)C (stereo partly shown) [Compound 54, N-[(1s,4s)-4-{[3-(4-{2-[ethyl(isopropyl)aminoformyl]-4-fluorophenyl}-1-methyl-1H-indazol-6-yl)pyrrolidin-1-yl]methyl}-4-hydroxylcyclohexyl]tert-butyl carbamate] | –
– | CCN(C(=O)c1cc(F)ccc1-c1cc(C2CCN(C[C@]3(O)CC[C@@H](NS(=O)(=O)CC)CC3)C2)cc2c1cnn2C)C(C)C (stereo partly shown) [Compound 55, N-ethyl-5-fluoro-2-[1-methyl-6-(1-{[(1s,4s)-4-ethanesulfonamido-1-hydroxylcyclohexyl]methyl}pyrrolidin-3-yl)-1H-indazol-4-yl]-N-(isopropyl)benzamide] | 7.68
6.92 | CCN(C(=O)c1cc(F)ccc1-c1cc([C@H]2CCN(CC3(O)CCC(NS(=O)(=O)CC)CC3)C2)cc2c1cnn2C)C(C)C (stereo partly drawn) [Compound 55-1-2, N-ethyl-5-fluoro-2-[1-methyl-6-[(3R)-1-{[(1r,4r)-4-ethanesulfonamido-1-hydroxylcyclohexyl]methyl}pyrrolidin-3-yl]-1H-indazol-4-yl]-N-(isopropyl)benzamide] | –
– | CCN(C(=O)c1cc(F)ccc1-c1cc([C@@H]2CCN(C[C@]3(O)CC[C@@H](NS(=O)(=O)CC)CC3)C2)cc2c1cnn2C)C(C)C [Compound 55-2-1, N-ethyl-5-fluoro-2-[1-methyl-6-[(3S)-1-{[(1s,4s)-4-ethanesulfonamido-1-hydroxylcyclohexyl]methyl}pyrrolidin-3-yl]-1H-indazol-4-yl]-N-(isopropyl)benzamide] | 6.46
6.97 | CCN(C(=O)c1cc(F)ccc1-c1cc(N2CCC(NCC3(F)CCC(NS(=O)(=O)CC)CC3)CC2)cn2c(C)ncc12)C(C)C (stereo not shown) [Compound 57, 2-[6-(4-{[(4-ethanesulfonamido-1-fluorocyclohexyl)methyl]amino}piperidin-1-yl)-3-methylimidazo[1,5-a]pyridin-8-yl]-N-ethyl-5-fluoro-N-(isopropyl)benzamide] | –
6.91 | CCN(C(=O)c1cc(F)ccc1-c1cc(N2CCN(CC3CCCCC3)CC2)cn2c(C)ncc12)C(C)C [Compound 58, 2-{6-[4-(cyclohexylmethyl)piperazin-1-yl]-3-methylimidazo[1,5-a]pyridin-8-yl}-N-ethyl-5-fluoro-N-(isopropyl)benzamide] | –
